Paper PMC5224920, “Assessing the mechanism and therapeutic potential of modulators of the human Mediator complex-associated protein kinases” (eLife, 2016)

Tested on: 12 single or co-culture in vitro tissue models of primary cells
Experiment: Culture/co-culture cell model panel, extracellular biomarkers (DiscoveRx); on CCL2/MCP-1: reference of the scale not given here; on CD141/Thrombomodulin: reference of the scale not given here; on CD142/Tissue Factor: reference of the scale not given here; on CD38: reference of the scale not given here; on CD40: reference of the scale not given here; on CD69: reference of the scale not given here; on CXCL8/IL-8: reference of the scale not given here; on CXCL9/MIG: reference of the scale not given here; on IL-1alpha: reference of the scale not given here; on M-CSF: reference of the scale not given here; on PBMC Cytotoxicity: reference of the scale not given here; on SRB: reference of the scale not given here; on sPGE2: reference of the scale not given here; on sTNF-alpha: reference of the scale not given here
Assay type: cell-based, human
[1] = HDF3CGF stimulated fibroblasts, 1.00E3 nM
[2] = HDF3CGF stimulated fibroblasts, 1.00E4 nM
[3] = HPNo Huvec+PBMC unstimulated, 1.00E0 nM
[4] = HPNo Huvec+PBMC unstimulated, 1.00E1 nM
[5] = HPNo Huvec+PBMC unstimulated, 1.00E2 nM
[6] = HPNo Huvec+PBMC unstimulated, 1.00E3 nM
[7] = HPNo Huvec+PBMC unstimulated, 1.00E4 nM

CN1c2ccc(-c3cncc(Cl)c3N3CCC4(CC3)CNC(=O)O4)cc2CS1(=O)=O [CMPD2]
EGFR [1]: -0.052 | M-CSF [1]: -0.096 | MMP-1 [1]: 0.008 | PAI-I [1]: -0.00267 | Proliferation_72hr [1]: -0.251 | SRB [1]: 0.000361 | TIMP-1 [1]: -0.053 | TIMP-2 [1]: 0.124 | CCL2/MCP-1 [2]: -0.114 | CD54/ICAM-1 [2]: -0.054 | CD106/VCAM-1 [2]: 0.046 | CXCL8/IL-8 [2]: -0.128 | CXCL9/MIG [2]: -0.076 | CXCL10/IP-10 [2]: 0.028 | CXCL11/I-TAC [2]: -0.031 | Collagen I [2]: 0.036 | Collagen III [2]: 0.126 | EGFR [2]: -0.055 | M-CSF [2]: -0.106 | MMP-1 [2]: 0.00332 | PAI-I [2]: -0.018 | Proliferation_72hr [2]: -0.340 | SRB [2]: -0.00651 | TIMP-1 [2]: -0.067 | TIMP-2 [2]: 0.106 | CCL2/MCP-1 [3]: 0.047 | CD38 [3]: 0.008 | CD40 [3]: -0.048 | CD106/VCAM-1 [3]: 0.122 | CD141/Thrombomodulin [3]: 0.013 | CD142/Tissue Factor [3]: 0.008 | CCL2/MCP-1 [4]: 0.017 | CD38 [4]: -0.016 | CD40 [4]: -0.068 | CD106/VCAM-1 [4]: 0.183 | CD141/Thrombomodulin [4]: -0.006 | CD142/Tissue Factor [4]: 0.035 | CCL2/MCP-1 [5]: 0.000304 | CD38 [5]: 0.014 | CD40 [5]: -0.055 | CD106/VCAM-1 [5]: 0.274 | CD141/Thrombomodulin [5]: 0.005 | CD142/Tissue Factor [5]: 0.003 | CCL2/MCP-1 [6]: 0.022 | CD38 [6]: -0.028 | CD40 [6]: -0.055 | CD106/VCAM-1 [6]: 0.205 | CD141/Thrombomodulin [6]: 0.027 | CD142/Tissue Factor [6]: -0.00853 | CCL2/MCP-1 [7]: 0.015 | CD38 [7]: -0.095 | CD40 [7]: -0.048 | CD106/VCAM-1 [7]: 0.147 | CD141/Thrombomodulin [7]: 0.018 | CD142/Tissue Factor [7]: -0.051 | CD69 (HPNo, 1.00E0 nM): 0.011 | CXCL8/IL-8 (HPNo, 1.00E0 nM): 0.022 | CXCL9/MIG (HPNo, 1.00E0 nM): 0.062 | M-CSF (HPNo, 1.00E0 nM): 0.018 | SRB (HPNo, 1.00E0 nM): -0.102 | sPGE2 (HPNo, 1.00E0 nM): 0.045 | sTNF-alpha (HPNo, 1.00E0 nM): 0.140 | CD69 (HPNo, 1.00E1 nM): -0.097 | CXCL8/IL-8 (HPNo, 1.00E1 nM): -0.006 | CXCL9/MIG (HPNo, 1.00E1 nM): -0.00447 | M-CSF (HPNo, 1.00E1 nM): -0.015 | SRB (HPNo, 1.00E1 nM): -0.043 | sPGE2 (HPNo, 1.00E1 nM): 0.026 | sTNF-alpha (HPNo, 1.00E1 nM): 0.045 | CD69 (HPNo, 1.00E2 nM): 0.035 | CXCL8/IL-8 (HPNo, 1.00E2 nM): 0.008 | CXCL9/MIG (HPNo, 1.00E2 nM): 0.020 | M-CSF (HPNo, 1.00E2 nM): -0.038 | SRB (HPNo, 1.00E2 nM): 0.011 | sPGE2 (HPNo, 1.00E2 nM): 0.045 | sTNF-alpha (HPNo, 1.00E2 nM): 0.037 | CD69 (HPNo, 1.00E3 nM): -0.007 | CXCL8/IL-8 (HPNo, 1.00E3 nM): 0.014 | CXCL9/MIG (HPNo, 1.00E3 nM): -0.00342 | M-CSF (HPNo, 1.00E3 nM): 0.051 | SRB (HPNo, 1.00E3 nM): 0.00149 | sPGE2 (HPNo, 1.00E3 nM): 0.054 | sTNF-alpha (HPNo, 1.00E3 nM): -0.000698 | CD69 (HPNo, 1.00E4 nM): -0.024 | CXCL8/IL-8 (HPNo, 1.00E4 nM): 0.024 | CXCL9/MIG (HPNo, 1.00E4 nM): -0.063 | M-CSF (HPNo, 1.00E4 nM): -0.029 | SRB (HPNo, 1.00E4 nM): -0.014 | sPGE2 (HPNo, 1.00E4 nM): 0.013 | sTNF-alpha (HPNo, 1.00E4 nM): 0.230 | CCL2/MCP-1 (LPS Huvec+PBMC, 1.00E0 nM): 0.007 | CD40 (LPS Huvec+PBMC, 1.00E0 nM): -0.057 | CD69 (LPS Huvec+PBMC, 1.00E0 nM): -0.008 | CD106/VCAM-1 (LPS Huvec+PBMC, 1.00E0 nM): 0.052 | CD141/Thrombomodulin (LPS Huvec+PBMC, 1.00E0 nM): 0.041 | CD142/Tissue Factor (LPS Huvec+PBMC, 1.00E0 nM): 0.093 | CXCL8/IL-8 (LPS Huvec+PBMC, 1.00E0 nM): -0.00258 | IL-1alpha (LPS Huvec+PBMC, 1.00E0 nM): 0.057 | M-CSF (LPS Huvec+PBMC, 1.00E0 nM): 0.019 | SRB (LPS Huvec+PBMC, 1.00E0 nM): -0.024 | sPGE2 (LPS Huvec+PBMC, 1.00E0 nM): 0.070 | sTNF-alpha (LPS Huvec+PBMC, 1.00E0 nM): 0.028 | CCL2/MCP-1 (LPS Huvec+PBMC, 1.00E1 nM): -0.031 | CD40 (LPS Huvec+PBMC, 1.00E1 nM): -0.098 | CD69 (LPS Huvec+PBMC, 1.00E1 nM): -0.024 | CD106/VCAM-1 (LPS Huvec+PBMC, 1.00E1 nM): 0.019 | CD141/Thrombomodulin (LPS Huvec+PBMC, 1.00E1 nM): 0.064 | CD142/Tissue Factor (LPS Huvec+PBMC, 1.00E1 nM): 0.086 | CXCL8/IL-8 (LPS Huvec+PBMC, 1.00E1 nM): -0.035 | IL-1alpha (LPS Huvec+PBMC, 1.00E1 nM): 0.041 | M-CSF (LPS Huvec+PBMC, 1.00E1 nM): -0.003 | SRB (LPS Huvec+PBMC, 1.00E1 nM): -0.065 | sPGE2 (LPS Huvec+PBMC, 1.00E1 nM): 0.126 | sTNF-alpha (LPS Huvec+PBMC, 1.00E1 nM): 0.036 | CCL2/MCP-1 (LPS Huvec+PBMC, 1.00E2 nM): -0.057 | CD40 (LPS Huvec+PBMC, 1.00E2 nM): -0.098 | CD69 (LPS Huvec+PBMC, 1.00E2 nM): 0.050 | CD106/VCAM-1 (LPS Huvec+PBMC, 1.00E2 nM): 0.052 | CD141/Thrombomodulin (LPS Huvec+PBMC, 1.00E2 nM): 0.070 | CD142/Tissue Factor (LPS Huvec+PBMC, 1.00E2 nM): 0.084 | CXCL8/IL-8 (LPS Huvec+PBMC, 1.00E2 nM): -0.122 | IL-1alpha (LPS Huvec+PBMC, 1.00E2 nM): 0.033 | M-CSF (LPS Huvec+PBMC, 1.00E2 nM): -0.006 | SRB (LPS Huvec+PBMC, 1.00E2 nM): -0.068 | sPGE2 (LPS Huvec+PBMC, 1.00E2 nM): 0.155 | sTNF-alpha (LPS Huvec+PBMC, 1.00E2 nM): 0.039 | CCL2/MCP-1 (LPS Huvec+PBMC, 1.00E3 nM): -0.096 | CD40 (LPS Huvec+PBMC, 1.00E3 nM): -0.100 | CD69 (LPS Huvec+PBMC, 1.00E3 nM): 0.022 | CD106/VCAM-1 (LPS Huvec+PBMC, 1.00E3 nM): 0.055 | CD141/Thrombomodulin (LPS Huvec+PBMC, 1.00E3 nM): 0.054 | CD142/Tissue Factor (LPS Huvec+PBMC, 1.00E3 nM): 0.086 | CXCL8/IL-8 (LPS Huvec+PBMC, 1.00E3 nM): -0.148 | IL-1alpha (LPS Huvec+PBMC, 1.00E3 nM): 0.00095 | M-CSF (LPS Huvec+PBMC, 1.00E3 nM): -0.00124 | SRB (LPS Huvec+PBMC, 1.00E3 nM): -0.066 | sPGE2 (LPS Huvec+PBMC, 1.00E3 nM): 0.173 | sTNF-alpha (LPS Huvec+PBMC, 1.00E3 nM): 0.034 | CCL2/MCP-1 (LPS Huvec+PBMC, 1.00E4 nM): -0.102 | CD40 (LPS Huvec+PBMC, 1.00E4 nM): -0.101 | CD69 (LPS Huvec+PBMC, 1.00E4 nM): 0.034 | CD106/VCAM-1 (LPS Huvec+PBMC, 1.00E4 nM): 0.035 | CD141/Thrombomodulin (LPS Huvec+PBMC, 1.00E4 nM): 0.062 | CD142/Tissue Factor (LPS Huvec+PBMC, 1.00E4 nM): 0.080 | CXCL8/IL-8 (LPS Huvec+PBMC, 1.00E4 nM): -0.154 | IL-1alpha (LPS Huvec+PBMC, 1.00E4 nM): -0.070 | M-CSF (LPS Huvec+PBMC, 1.00E4 nM): -0.021 | SRB (LPS Huvec+PBMC, 1.00E4 nM): -0.070 | sPGE2 (LPS Huvec+PBMC, 1.00E4 nM): 0.182 | sTNF-alpha (LPS Huvec+PBMC, 1.00E4 nM): -0.175 | CCL2/MCP-1 (SAg, 1.00E0 nM): 0.032 | CD38 (SAg, 1.00E0 nM): -0.023 | CD40 (SAg, 1.00E0 nM): -0.085 | CD69 (SAg, 1.00E0 nM): 0.033 | CXCL8/IL-8 (SAg, 1.00E0 nM): 0.067 | CXCL9/MIG (SAg, 1.00E0 nM): -0.004 | PBMC Cytotoxicity (SAg, 1.00E0 nM): 0.038 | Proliferation (SAg, 1.00E0 nM): 0.024 | SRB (SAg, 1.00E0 nM): -0.013 | CCL2/MCP-1 (SAg, 1.00E1 nM): -0.012 | CD38 (SAg, 1.00E1 nM): -0.063 | CD40 (SAg, 1.00E1 nM): -0.169 | CD69 (SAg, 1.00E1 nM): 0.018 | CXCL8/IL-8 (SAg, 1.00E1 nM): -0.038 | CXCL9/MIG (SAg, 1.00E1 nM): -0.018 | PBMC Cytotoxicity (SAg, 1.00E1 nM): 0.015 | Proliferation (SAg, 1.00E1 nM): 0.017 | SRB (SAg, 1.00E1 nM): -0.031 | CCL2/MCP-1 (SAg, 1.00E2 nM): -0.066 | CD38 (SAg, 1.00E2 nM): -0.040 | CD40 (SAg, 1.00E2 nM): -0.131 | CD69 (SAg, 1.00E2 nM): 0.026 | CXCL8/IL-8 (SAg, 1.00E2 nM): -0.133 | CXCL9/MIG (SAg, 1.00E2 nM): -0.055 | PBMC Cytotoxicity (SAg, 1.00E2 nM): 0.00148 | Proliferation (SAg, 1.00E2 nM): 0.021 | SRB (SAg, 1.00E2 nM): -0.056 | CCL2/MCP-1 (SAg, 1.00E3 nM): -0.072 | CD38 (SAg, 1.00E3 nM): -0.069 | CD40 (SAg, 1.00E3 nM): -0.122 | CD69 (SAg, 1.00E3 nM): 0.050 | CXCL8/IL-8 (SAg, 1.00E3 nM): -0.196 | CXCL9/MIG (SAg, 1.00E3 nM): -0.061 | PBMC Cytotoxicity (SAg, 1.00E3 nM): 0.00529 | Proliferation (SAg, 1.00E3 nM): 0.010 | SRB (SAg, 1.00E3 nM): -0.049 | CCL2/MCP-1 (SAg, 1.00E4 nM): -0.111 | CD38 (SAg, 1.00E4 nM): -0.058 | CD40 (SAg, 1.00E4 nM): -0.144 | CD69 (SAg, 1.00E4 nM): 0.006 | CXCL8/IL-8 (SAg, 1.00E4 nM): -0.208 | CXCL9/MIG (SAg, 1.00E4 nM): -0.061 | PBMC Cytotoxicity (SAg, 1.00E4 nM): 0.00852 | Proliferation (SAg, 1.00E4 nM): -0.041 | SRB (SAg, 1.00E4 nM): -0.053
